Test results reported in ChEMBL document CHEMBL1155354, “Carbonic anhydrase inhibitors. Inhibition of the Rv1284 and Rv3273 beta-carbonic anhydrases from Mycobacterium tuberculosis with diazenylbenzenesulfonamides” (Bioorg Med Chem Lett, 2009).

Experiments:
[1] = molecular target: T1, Beta-carbonic anhydrase 1 (Mycobacterium tuberculosis, UniProt P9WPJ7)
T1 sequence (P9WPJ7 whole entry): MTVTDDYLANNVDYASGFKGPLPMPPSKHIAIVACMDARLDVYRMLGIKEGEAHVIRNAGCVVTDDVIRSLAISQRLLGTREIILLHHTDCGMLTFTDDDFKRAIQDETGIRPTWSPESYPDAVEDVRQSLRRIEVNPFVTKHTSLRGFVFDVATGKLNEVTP

[2] = molecular target: T2, PROBABLE TRANSMEMBRANE CARBONIC ANHYDRASE (CARBONATE DEHYDRATASE) (CARBONIC DEHYDRATASE) (Mycobacterium tuberculosis, UniProt P96878)
T2 sequence (P96878 whole entry): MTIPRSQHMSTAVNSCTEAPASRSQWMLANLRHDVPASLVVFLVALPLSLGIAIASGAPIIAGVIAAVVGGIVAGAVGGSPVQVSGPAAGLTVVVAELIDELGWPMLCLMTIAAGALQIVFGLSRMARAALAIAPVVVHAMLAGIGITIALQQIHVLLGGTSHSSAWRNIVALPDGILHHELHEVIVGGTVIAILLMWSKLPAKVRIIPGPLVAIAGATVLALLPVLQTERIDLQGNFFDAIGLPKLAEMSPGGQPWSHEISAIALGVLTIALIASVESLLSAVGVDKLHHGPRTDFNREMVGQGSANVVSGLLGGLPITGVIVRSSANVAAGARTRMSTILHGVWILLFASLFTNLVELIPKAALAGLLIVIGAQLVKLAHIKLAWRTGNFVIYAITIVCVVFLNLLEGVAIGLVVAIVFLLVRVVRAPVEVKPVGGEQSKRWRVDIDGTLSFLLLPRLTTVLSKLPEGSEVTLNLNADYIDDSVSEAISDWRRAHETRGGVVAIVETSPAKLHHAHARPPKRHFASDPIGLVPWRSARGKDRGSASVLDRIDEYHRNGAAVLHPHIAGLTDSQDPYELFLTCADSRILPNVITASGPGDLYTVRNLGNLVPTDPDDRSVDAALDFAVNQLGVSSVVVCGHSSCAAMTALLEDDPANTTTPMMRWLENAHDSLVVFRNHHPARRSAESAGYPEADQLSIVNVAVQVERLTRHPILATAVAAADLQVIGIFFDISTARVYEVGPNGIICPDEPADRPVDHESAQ
Description: Inhibition of Mycobacterium tuberculosis recombinant carbonic anhydrase Rv3273 by stopped flow CO2 hydration assay

Carbonic anhydrase 2 = Carbonic anhydrase 2 (Homo sapiens, UniProt P00918)
Description: Inhibition of human cloned full length carbonic anhydrase 2 by stopped flow CO2 hydration assay

SMILES | Ki [1] | Ki [2] | Ki (Carbonic anhydrase 2)
NS(=O)(=O)c1ccc(/N=N/c2ccc(NCS(=O)(=O)O)cc2)cc1 | 6.78 µM | 8.9 µM | –
NCc1ccc(S(N)(=O)=O)cc1 [MAFENIDE] | – | 7.33 µM | –
CNc1ccc(/N=N/c2ccc(S(N)(=O)=O)cc2)cc1 | 7.69 µM | 9.18 µM | 0.093 µM
NS(=O)(=O)c1cccc(/N=N/c2ccc(NCS(=O)(=O)O)cc2)c1 | 7.51 µM | 9.45 µM | –
Nc1ccc(S(=O)(=O)NCCc2ccc(S(N)(=O)=O)cc2)cc1 | – | 0.17 µM | –
CN(C)c1ccc(/N=N/c2cccc(S(N)(=O)=O)c2)cc1 | 7.54 µM | 9.36 µM | –
Nc1ccc(/N=N/c2cccc(S(N)(=O)=O)c2)cc1 | 7 µM | 8.68 µM | –
Nc1ccc(S(=O)(=O)NCc2ccc(S(N)(=O)=O)cc2)cc1 | – | 2.21 µM | –
NS(=O)(=O)c1cccc(/N=N/c2ccc(O)cc2)c1 | 8.97 µM | 9.23 µM | 0.106 µM
Nc1ccc(/N=N/c2ccc(S(N)(=O)=O)cc2)cc1 | 7.2 µM | 8.78 µM | –
NS(=O)(=O)c1ccc(/N=N/c2ccc(O)cc2)cc1 | 9.27 µM | 12.4 µM | –
CN(CS(=O)(=O)O)c1ccccc1 [SODIUM(METHYL(PHENYL)AMINO)METHANESULFONATE] | 7.86 µM | 9.11 µM | –
CCN[C@H]1CN(CCCOC)S(=O)(=O)c2sc(S(N)(=O)=O)cc21 [BRINZOLAMIDE] | – | 0.201 µM | –
CN(C)c1ccc(/N=N/c2ccc(S(N)(=O)=O)cc2)cc1 | 6.86 µM | 30.7 µM | 0.638 µM
O=S(=O)(O)CNc1ccccc1 [SODIUM PHENYLAMINOMETHANESULFONATE] | 8.67 µM | 8.9 µM | –
CN(CS(=O)(=O)O)c1ccc(/N=N/c2cccc(S(N)(=O)=O)c2)cc1 | 63 µM | 7.4 µM | –
CN(CS(=O)(=O)O)c1ccc(/N=N/c2ccc(S(N)(=O)=O)cc2)cc1 | 8.71 µM | 9.03 µM | –
CC(=O)Nc1cc2c(O)c(/N=N/c3ccc(S(N)(=O)=O)cc3)c(S(=O)(=O)O)cc2cc1S(=O)(=O)O [PRONTOCIL] | 0.126 µM | 0.148 µM | –
